Entries after “also recorded” stand apart in the source; their conditions may differ.
Assays:
ragweed [1] = assay: General conclusions on ragweed control from the experiments; assay type: in vivo
ragweed [2] = assay: Example 3: assay with other non-ionic surfactants, ragweed plots in waste area situation; assay type: in vivo
Method: This experiment was conducted to test another solution containing another non-ionic surfactant. The experiment was conducted on plots behind a beef barn complex, on ragweed of 6 to 10 inches in height, fully flowered, in a very hard and gravely soil, such as in a waste area situation. The experiment was conducted as a completely randomized design (CRD) with three replicates.
Each plot has a surface of one (1) m^2. The sprayer used was a small compressed air sprayer with 210 kPa pressure and a T-Jet™ 8002 nozzle. The plots were sprayed Sep. 3, 1996 at 10:00 a.m. under a bright sunshine and a temperature of 28° C. In all instances, the efficacy of the solution was evaluated 20-30 minutes, 2-4 hrs, 16-24 hrs, and 2-5 days after spraying. The efficacy of the solution was determined based on level of plant deterioration.
In this experiment, 14 different treatments were applied to the different plots (with three replicates/treatment).
Once it had been determined that a surfactant could possibly increase efficacy of the NaCl at the same time as reducing the spray volume needed, another non-ionic surfactant, namely Citowett™, was introduced into the trials. All surfactants were applied at the rates usually recommended in the Ontario Guide to Chemical Weed Control (OMAFRA, 1997).

broad-leaved plantain = assay: Selective control of broad-leaved plantain in turf (FIG. 4); assay type: in vivo; conditions: 12% NaCl solution; 24 hours following the application
ragweed [3] = assay: Spraying of ragweed plants as described in the description and FIGS. 1-3; assay type: in vivo; conditions: 12% NaCl solution
ragweed [4] = assay: Example 4: concentration of salt with or without surfactants, tall ragweed in cultivated field; assay type: in vivo; conditions: tall ragweed (40-60 inches)
Method: This experiment was conducted on plot of tall ragweed (40-60 inches), fully flowered, in a cultivated field situation. The experiment was conducted as a completely randomized design (CRD) with three replicates.
(§1) Each plot has a surface of four (4) m^2. The sprayer used was a Hardi™ pack sprayer with 200-220 kPa pressure and T-Jet™ 8002 nozzle. The plots were sprayed Sep. 6, 1996 at 09:00 a.m. under a bright sunshine and a temperature of 26° C. In all instances, the efficacy of the solution was evaluated 30 minutes, 2-4 hrs, 16-24 hrs, and 2-5 days after spraying. The efficacy of the solution was determined based on level of plant deterioration.
(§2) In this experiment, 8 different treatments were applied to the different plots (with three replicates/treatment).

all types of vegetation = conditions: Frear, Chemistry of Pesticides 3rd ed. p. 401, 1955; cited from earlier work
ragweed [5] = assay: Example 5: optimization of salt concentration with or without surfactants, cut ragweed in roadside situation; assay type: in vivo
Method: This experiment was conducted on plots having ragweed 4 to 6 inches tall, in flower, and which had been cut at least once, in a roadside situation. The experiment was conducted as a randomized complete block design (RCBD) with three replicates.
as §1, with “small compressed air” for “Hardi™ pack”, “210” for “200-220”, “13:30,” for “09:00 a.m.”, “29°” for “26°”
as §2
Only the 8% and 12% rates were considered in this experiment because it had been observed that there was no efficacy or economic benefit to using the 16% or 20% rates of NaCl. Both NaCl concentrations were applied alone or with each of the three surfactants.

ragweed [6] = assay: Example 2: determination of an adequate volume sprayed, ragweed plots sprayed at 1000 l/ha; assay type: in vivo
Method: This experiment was conducted to determine if increasing the spray volume to the point where the plants were completely covered to the run-off stage would improve efficacy.
This experiment was conducted on plots within a fencerow of an agricultural field where ragweed plants had attained 12 to 20 inches in height, and were in full flower. The experiment was conducted as a completely randomized design (CRD) with three replicates.
Each plot has a surface of one (1) m^2. The sprayer used was a Hardi™ pack sprayer with Hardi™ nozzle and 200-220 kPa of pressure. The plots were sprayed Aug. 29, 1996 at 13:30 under a bright sunshine and a temperature of 29° C. The spray volume used was 1000 l/ha or 100 ml/m^2 plot.
In all instances, the efficacy of the solution was evaluated 30 minutes, 2-4 hrs, 16-24 hrs, and 2-5 days after spraying. The efficacy of the solution was determined based on level of plant deterioration.
In this experiment, 6 different treatments (having three replicates each) were subjected to the different plots.

SMILES	suitability as alternative to NaCl (ragweed [1]; KNO3 at the 12% rate)	efficacy compared with the NaCl solutions (ragweed [2]; 12% KNO3)	control of broad-leaved plantain in turf (FIG. 4) (broad-leaved plantain)	effect on ragweed plants (FIGS. 2 and 3) (ragweed [3]; 24 hours following spraying)	effect on ragweed plant (FIG. 1) (ragweed [3]; within 6 hours of applying)	control (ragweed [4]; 8% NaCl)	efficiency compared with higher concentrations (ragweed [4]; 12% NaCl without surfactant)	ragweed control (general conclusion) (ragweed [1]; salt solutions, especially NaCl solutions)	herbicidal effect and selectivity (all types of vegetation)	control of ragweed (ragweed [5]; 8% NaCl alone)	effect 30 minutes after application (ragweed [5]; 12% NaCl alone, 30 minutes)	effect 2 days after spraying (ragweed [5]; 12% NaCl alone, 2 days)	efficacy compared with the 12% solution (ragweed [2]; 8% NaCl alone)	overall damage to the ragweed compared with the 12% solution (ragweed [2]; 16% NaCl)	overall damage to the ragweed compared with the 12% solution (ragweed [2]; 20% NaCl)	activity at damaging the ragweed (ragweed [6]; 8% NaCl)	overall efficacy (ragweed [6]; 12% NaCl)	difference in effect between 12% and 16% solution (ragweed [6]; 16% NaCl versus 12% NaCl, any time except 30 minutes after application)	speed of wilting (ragweed [6]; 16% NaCl, 30 minutes after application)	reaction of ragweed to the sprays (ragweed [6]; NaCl at all three concentrations (8, 12, 16% W/V), 30 minutes after spraying)
O=[N+]([O-])[O-].[K+] [KNO3, potassium nitrate, reference compound]	not a viable alternative to NaCl	not as effective as any of the NaCl solutions																		
[Cl-].[Na+] [NaCl, sodium chloride]			selective control	drooping of ragweed staminate flowers and desiccation of leaves; also recorded: desiccated	curling and wilting	slightly lower	as efficient as 16% or 20%	effective at ragweed control	will kill all types of vegetation, without any selection	inferior control of ragweed compared with the 12% solution	drooping	complete necrosis	not as effective as the 12% solution	did not visibly improve overall damage to the ragweed	did not visibly improve overall damage to the ragweed	there was activity but it did not seem to be as effective as the 12% concentration	sufficient	little difference	appeared to have wilted more quickly than those treated with 12%	the inflorescences were drooping

Reference: patent US6372690B1 (McGill University, priority 1998, dated 2002)
